Source: patent US11065257B2, “Substituted pyrazoloazepin-4-ones and their use as phosphodiesterase inhibitors” (LEO Pharma A/S, priority 2016, dated 2021)

Each compound was assayed against T1, human PDE4D catalytic domain (Homo sapiens, UniProt Q08499) (assay: PDE4 Assay). Details: human PDE4D catalytic domain (S380-L740), TR-FRET with FAM-cAMP; expressed as a range of IC50; read-out: PDE4 Potency Range.
T1 construct: UniProt no; Q08499 [S380-L740]
Type: biochemical
Method in brief: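 Catalytic domain (S380-L740) was incubated with unlabelled cAMP plus FAM-cAMP and titrated compound, then stopped with Tb-donor nanoparticles binding AMP phospho groups. Generated AMP was read by time-resolved FRET; IC50 was reported as 50% inhibition of substrate cleavage relative to controls, expressed as nM ranges.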

T1 sequence (Q08499 380-740): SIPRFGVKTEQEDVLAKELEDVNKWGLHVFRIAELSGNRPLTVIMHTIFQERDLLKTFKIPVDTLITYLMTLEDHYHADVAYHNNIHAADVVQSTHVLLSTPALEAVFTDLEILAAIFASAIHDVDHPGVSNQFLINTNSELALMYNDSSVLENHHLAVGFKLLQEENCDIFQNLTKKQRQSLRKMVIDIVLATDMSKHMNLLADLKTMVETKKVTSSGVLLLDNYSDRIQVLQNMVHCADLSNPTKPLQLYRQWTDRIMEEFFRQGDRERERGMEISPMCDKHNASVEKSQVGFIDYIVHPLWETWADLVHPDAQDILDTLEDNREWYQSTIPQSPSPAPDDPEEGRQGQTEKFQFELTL

| SMILES | IC50 [nM] |
| --- | --- |
| CCc1nn(CCCOC(=O)c2cc(C)nnc2C)c2c1C(=O)NCC1(CCOCC1)C2 [Example 88, 3-(3-ethyl-4-oxo-spiro[6,8-dihydro-5H-pyrazolo[4,3-c]azepine-7,4′-tetrahydropyran]-1-yl)propyl 3,6-dimethylpyridazine-4-carboxylate] | > 500 |
| CCc1nn(CCCOC(=O)c2coc(C3CC3)n2)c2c1C(=O)NCC1(CCOCC1)C2 [Example 89, 3-(3-ethyl-4-oxo-spiro[6,8-dihydro-5H-pyrazolo[4,3-c]azepine-7,4′-tetrahydropyran]-1-yl)propyl 2-cyclopropyloxazole-4-carboxylate] | 100 to 500 |
| CCc1nn(CCCOC(=O)c2cc(C)nn2CC)c2c1C(=O)NCC1(CCOCC1)C2 [Example 90, 3-(3-ethyl-4-oxo-spiro[6,8-dihydro-5H-pyrazolo[4,3-c]azepine-7,4′-tetrahydropyran]-1-yl)propyl 2-ethyl-5-methyl-pyrazole-3-carboxylate] | 100 to 500 |
| CCc1nn(CCCOC(=O)c2c(C)nn(C)c2C)c2c1C(=O)NCC1(CCOCC1)C2 [Example 91, 3-(3-ethyl-4-oxo-spiro[6,8-dihydro-5H-pyrazolo[4,3-c]azepine-7,4′-tetrahydropyran]-1-yl)propyl 1,3,5-trimethylpyrazole-4-carboxylate] | 100 to 500 |
| CCc1noc(C)c1C(=O)OCCCn1nc(CC)c2c1CC1(CCOCC1)CNC2=O [Example 92, 3-(3-ethyl-4-oxo-spiro[6,8-dihydro-5H-pyrazolo[4,3-c]azepine-7,4′-tetrahydropyran]-1-yl)propyl 3-ethyl-5-methyl-isoxazole-4-carboxylate] | > 500 |
| CCc1nn(CCCOC(=O)C2CCN(C(C)=O)C2)c2c1C(=O)NCC1(CCOCC1)C2 (centres unmarked) [Example 93, 3-(3-ethyl-4-oxo-spiro[6,8-dihydro-5H-pyrazolo[4,3-c]azepine-7,4′-tetrahydropyran]-1-yl)propyl 1-acetylpyrrolidine-3-carboxylate] | > 500 |
| CCc1nn(CCCOC(=O)c2nc(C)c(C)s2)c2c1C(=O)NCC1(CCOCC1)C2 [Example 94, 3-(3-ethyl-4-oxo-spiro[6,8-dihydro-5H-pyrazolo[4,3-c]azepine-7,4′-tetrahydropyran]-1-yl)propyl 4,5-dimethylthiazole-2-carboxylate] | 100 to 500 |
| CCc1nn(CCCOC(=O)c2sc(C)nc2C)c2c1C(=O)NCC1(CCOCC1)C2 [Example 95, 3-(3-ethyl-4-oxo-spiro[6,8-dihydro-5H-pyrazolo[4,3-c]azepine-7,4′-tetrahydropyran]-1-yl)propyl 2,4-dimethylthiazole-5-carboxylate] | 100 to 500 |
| CCc1nn(CCCOC(=O)C2CCS(=O)(=O)C2)c2c1C(=O)NCC1(CCOCC1)C2 (centres unmarked) [Example 96, 3-(3-ethyl-4-oxo-spiro[6,8-dihydro-5H-pyrazolo[4,3-c]azepine-7,4′-tetrahydropyran]-1-yl)propyl 1,1-dioxothiolane-3-carboxylate] | > 500 |
| CCc1noc(CC)c1C(=O)OCCCn1nc(CC)c2c1CC1(CCOCC1)CNC2=O [Example 97, 3-(3-ethyl-4-oxo-spiro[6,8-dihydro-5H-pyrazolo[4,3-c]azepine-7,4′-tetrahydropyran]-1-yl)propyl 3,5-diethylisoxazole-4-carboxylate] | 100 to 500 |
| CCc1nn(CCCOC(=O)C2CCCN(C(C)=O)C2)c2c1C(=O)NCC1(CCOCC1)C2 (centres unmarked) [Example 98, 3-(3-ethyl-4-oxo-spiro[6,8-dihydro-5H-pyrazolo[4,3-c]azepine-7,4′-tetrahydropyran]-1-yl)propyl 1-acetylpiperidine-3-carboxylate] | > 500 |
| CCc1nn(CCCOC(=O)C2CCN(C(C)=O)CC2)c2c1C(=O)NCC1(CCOCC1)C2 [Example 99, 3-(3-ethyl-4-oxo-spiro[6,8-dihydro-5H-pyrazolo[4,3-c]azepine-7,4′-tetrahydropyran]-1-yl)propyl 1-acetylpiperidine-4-carboxylate] | > 500 |
| CCc1nn(CCCOC(=O)c2sc(OC)nc2C)c2c1C(=O)NCC1(CCOCC1)C2 [Example 100, 3-(3-ethyl-4-oxo-spiro[6,8-dihydro-5H-pyrazolo[4,3-c]azepine-7,4′-tetrahydropyran]-1-yl)propyl 2-methoxy-4-methyl-thiazole-5-carboxylate] | 100 to 500 |
| CCc1nn(CCCOC(=O)c2ccc3ncn(C)c3c2)c2c1C(=O)NCC1(CCOCC1)C2 [Example 101, 3-(3-ethyl-4-oxo-spiro[6,8-dihydro-5H-pyrazolo[4,3-c]azepine-7,4′-tetrahydropyran]-1-yl)propyl 3-methylbenzimidazole-5-carboxylate] | < 100 |
| CCc1nn(CCCOC(=O)C2CCCS(=O)(=O)C2)c2c1C(=O)NCC1(CCOCC1)C2 (centres unmarked) [Example 102, 3-(3-ethyl-4-oxo-spiro[6,8-dihydro-5H-pyrazolo[4,3-c]azepine-7,4′-tetrahydropyran]-1-yl)propyl 1,1-dioxothiane-3-carboxylate] | > 500 |
| CCc1nn(CCCOC(=O)C2CCS(=O)(=O)CC2)c2c1C(=O)NCC1(CCOCC1)C2 [Example 103, 3-(3-ethyl-4-oxo-spiro[6,8-dihydro-5H-pyrazolo[4,3-c]azepine-7,4′-tetrahydropyran]-1-yl)propyl 1,1-dioxothiane-4-carboxylate] | > 500 |
| CCc1nn(CCCOC(=O)C2CCCN(C(=O)OC)C2)c2c1C(=O)NCC1(CCOCC1)C2 (centres unmarked) [Example 104, O3-[3-(3-ethyl-4-oxo-spiro[6,8-dihydro-5H-pyrazolo[4,3-c]azepine-7,4′-tetrahydropyran]-1-yl)propyl] O1-methyl piperidine-1,3-dicarboxylate] | 100 to 500 |
| CCc1nn(CCCOC(=O)C2CCN(C(=O)OC)CC2)c2c1C(=O)NCC1(CCOCC1)C2 [Example 105, O4-[3-(3-ethyl-4-oxo-spiro[6,8-dihydro-5H-pyrazolo[4,3-c]azepine-7,4′-tetrahydropyran]-1-yl)propyl] O1-methyl piperidine-1,4-dicarboxylate] | 100 to 500 |
| CCc1nn(CCCOC(=O)C2CCCN(C(=O)N(C)C)C2)c2c1C(=O)NCC1(CCOCC1)C2 (centres unmarked) [Example 106, 3-(3-ethyl-4-oxo-spiro[6,8-dihydro-5H-pyrazolo[4,3-c]azepine-7,4′-tetrahydropyran]-1-yl)propyl 1-(dimethylcarbamoyl)piperidine-3-carboxylate] | 100 to 500 |
| CCc1nn(C[C@@H](C)COC(=O)C2CCOC2)c2c1C(=O)NCC1(CCOCC1)C2 (stereo partly drawn) [Example 108, [(2R)-3-(3-ethyl-4-oxo-spiro[6,8-dihydro-5H-pyrazolo[4,3-c]azepine-7,4′-tetrahydropyran]-1-yl)-2-methyl-propyl] tetrahydrofuran-3-carboxylate] | < 100 |
| CCc1nn(C[C@@H](C)COC(=O)C2CCOCC2)c2c1C(=O)NCC1(CCOCC1)C2 [Example 109, [(2R)-3-(3-ethyl-4-oxo-spiro[6,8-dihydro-5H-pyrazolo[4,3-c]azepine-7,4′-tetrahydropyran]-1-yl)-2-methyl-propyl] tetrahydropyran-4-carboxylate] | < 100 |
| CCc1nn(CC(C)(C)COC(=O)C2CCOC2)c2c1C(=O)NCC1(CCOCC1)C2 (centres unmarked) [Example 110, [3-(3-ethyl-4-oxo-spiro[6,8-dihydro-5H-pyrazolo[4,3-c]azepine-7,4′-tetrahydropyran]-1-yl)-2,2-dimethyl-propyl] tetrahydrofuran-3-carboxylate] | 100 to 500 |
| CCc1nn(CC(C)(C)COC(=O)C2CCOCC2)c2c1C(=O)NCC1(CCOCC1)C2 [Example 111, [3-(3-ethyl-4-oxo-spiro[6,8-dihydro-5H-pyrazolo[4,3-c]azepine-7,4′-tetrahydropyran]-1-yl)-2,2-dimethyl-propyl] tetrahydropyran-4-carboxylate] | 100 to 500 |
